Test results from patent EP4104818A1, “OPHTHALMIC COMPOSITION COMPRISING XANTHOHUMOL” (Skeye Pharma GbR, priority 2021, dated 2022).

Tests used:
[1] = test system: Intracellular, mitochondrial reactive oxygen species (ROS); assay: Dihydrorhodamine-123 (DHR-123) assay of intracellular ROS; format: cell-based; conditions: Homo sapiens, HCEC, 2 hours
Experimental: Intracellular, mitochondrial reactive oxygen species (ROS) were assessed using the cell membrane permeable dihydrorhodamine-123 (DHR-123) assay (D23806; ThermoFisher Scientific, Waltham, MA, USA) according to the manufacturer's instructions. Measurements were made after exposing human corneal epithelial cells to H2O2, xanthohumol or DMSO only for 2 hours. For ROS staining, cells were incubated with 10 µM DHR-123 for 15 minutes. Nucleus staining was performed using Hoechst 33342 nucleic acid stain (H1399; ThermoFisher Scientific, Waltham, MA, USA). Randomly, a minimum of 3 images of every treatment group were acquired with a 20x fluorescence objective using the aforementioned Axio Observer 7. Results were expressed in percent of fluorescence intensity relative to the baseline measurement in the DMSO control group. For quantification of the fluorescence signals, the microscope software ZEN 3.0 (Carl Zeiss AG, Jena, Germany) was used.

[2] = test system: human corneal epithelial cells; assay: cells; format: cell-based; conditions: Corneal epithelial cell, 24 h, read-out: cell viability
Experimental: Human corneal epithelial cells (hCEC; SCCE016; Merck Millipore, Burlington, MA, USA) were cultured in corneal epithelial cell growth medium with supplement mix (LGC Standards, Teddington, United Kingdom). Approximately 10,000 hCECs were seeded onto each well of a 96-well cell-culture dishes (NUNC, Langenselbold, Germany). Confluent cells were used for Water-soluble tetrazolium salt (WST-1) cell proliferation assays (Hoffmann-La Roche AG, Basel, Switzerland). After 24 hours of incubation with 100 µl of corneal epithelial cell growth medium without its supplement mix (LGC Standards, Teddington, United Kingdom), hCECs were treated with different concentrations of xanthohumol (XH; Selleckchem, Houston, TX, USA) dissolved in dimethyl sulfoxide (DMSO; Carl Roth AG, Karlsruhe, Germany). Control groups were treated with DMSO only. Following another 72 hours of incubation, the cells were incubated with the WST-1 solution for 30 minutes. Substrate turnover was measured with an ELISA reader at 450 nm (Spectramax 190; Molecular Devices, Sunnyvale, CA, USA) and a reference at 690 nm. To determine potential anti-oxidative effects of xanthohumol, hCECs were incubated and treated analogous to the above-mentioned WST-1 cell proliferation assay with minor modifications. […] Following another incubation of the hCECs for 24 hours, the WST-1 assay was further finalized according to the description above.

bovine corneas = assay: Corneal erosion assay on bovine corneas ex vivo; conditions: up to 72 hours, every 12 hours, compared to the DMSO-treated control group
Experimental: Furthermore, corneal epithelial cell wound healing was determined on bovine corneas ex vivo. Bovine globes were obtained from a local butchery following approval by the authority for waste management of animal carcasses (ID: DE 09 162 0066-219) and processed within 12 hours post-mortem. The bovine globes were washed in 10% w/v povidone-iodine for 5 minutes. A circular corneal epithelial erosion was created using an 8 mm trephine and a hockey knife (Katena Products Inc., Parsippany, NJ, USA). Subsequently, a sclerocorneal ring was excised with eye scissors (Katena Products Inc., Parsippany, NJ, USA) and transferred to a 60 mm cell culture plate. To acquire reference images of the corneal erosion, the wound area was stained with a 0.8 mg/ml fluorescein sodium solution and illuminated with blue light (approximate wavelength 490 nm). Images were acquired using a distance-fixed digital single lens reflex camera equipped with a macro lens (Canon Inc., Tokyo, Japan). Consequently, the sclerocorneal rings were incubated in Dulbecco's Modified Eagle's Medium (Bio&SELL GmbH, Feucht, Germany) supplemented with 50 IU penicillin/ml and 50 µg streptomycin/ml (Merck Millipore, Burlington, MA, USA) and xanthohumol or DMSO only. Follow-up images were acquired every 12 hours, the cell culture medium was renewed daily.

[3] = test system: Human corneal epithelial cells (hCEC); assay: WST-1 cell viability assay; format: cell-based; conditions: 72 hours of incubation, hCECs, compared to the DMSO-treated control group
Experimental: Human corneal epithelial cells (hCEC; SCCE016; Merck Millipore, Burlington, MA, USA) were cultured in corneal epithelial cell growth medium with supplement mix (LGC Standards, Teddington, United Kingdom). Approximately 10,000 hCECs were seeded onto each well of a 96-well cell-culture dishes (NUNC, Langenselbold, Germany). Confluent cells were used for Water-soluble tetrazolium salt (WST-1) cell proliferation assays (Hoffmann-La Roche AG, Basel, Switzerland). After 24 hours of incubation with 100 µl of corneal epithelial cell growth medium without its supplement mix (LGC Standards, Teddington, United Kingdom), hCECs were treated with different concentrations of xanthohumol (XH; Selleckchem, Houston, TX, USA) dissolved in dimethyl sulfoxide (DMSO; Carl Roth AG, Karlsruhe, Germany). Control groups were treated with DMSO only. Following another 72 hours of incubation, the cells were incubated with the WST-1 solution for 30 minutes. Substrate turnover was measured with an ELISA reader at 450 nm (Spectramax 190; Molecular Devices, Sunnyvale, CA, USA) and a reference at 690 nm.

hCEC [4] = assay: Cell scratch assay (hCEC migration / wound healing in vitro); format: cell-based, Human
Experimental: To analyze hCEC migration in vitro, cells were cultured in corneal epithelial cell growth medium with supplement mix until confluence of the cells of a 6-well cell culture plate. Following an incubation period of 24 hours in cell culture medium without supplements, 5 linear scratches were performed in each well using a 200 µl pipette tip (Eppendorf AG, Hamburg, Germany). The hCECs were then incubated prospectively under treatment with xanthohumol or DMSO as a control for up to 72 hours. Reference images were acquired at the beginning of the incubation period using the phase contrast mode on an Axio Observer 7 (Carl Zeiss AG, Jena, Germany). Every 24 hours, follow-up images of 4-5 different scratch sections were acquired. The size of the wound area was analyzed using a semi-automated analysis tool in ImageJ 1.53a (National Institute of Health, Bethesda, MD, USA).

hCEC [5] = assay: BrdU cell proliferation ELISA; format: cell-based; conditions: Homo sapiens, 24 hours, hCECs, no significant change
Experimental: Proliferation of hCEC was determined using a 5-bromo-2'-deoxyuridine (BrdU) ELISA in accordance with the manufacturers' recommendations (Merck KGaA, Darmstadt, Germany). In brief, approximately 7,000 cells were seeded onto a 96-well cell culture plat e and incubated for 24h to achieve complete adherence of the cells. After 24 hours of incubation with 100 µl of corneal epithelial cell growth medium without its' supplement mix, hCECs were treated with xanthohumol dissolved in DMSO. Following another 24 hours of incubation with BrdU labeling solution, cells were fixed and incubated with anti-BrdU antibodies according to the manufacturer's recommendations. BrdU incorporation into the DNA of hCECs was quantified by absorbance measurement at 450 nm.

SMILES	activity at 100 µM ([1]; H2O2 100 µM only, compared to the control group, read-out: DHE-123 fluorescence) [%]	viability at 100 µM [2] [%]	speed of re-epithelialization (bovine corneas; 1 µM)	speed of re-epithelialization (bovine corneas; 2.5 µM)	viability at 1 µM ([3]; 1 µM) [%]	viability at 2.5 µM ([3]; 2.5 µM) [%]	viability at 5 µM ([3]; 5 µM, not significant) [%]	activity at 1 µM ([1]; 1 µM xanthohumol with H2O2 100 µM, relative to the DMSO control group, read-out: DHR-123 fluorescence) [%]	activity at 2.5 µM ([1]; 2.5 µM xanthohumol with H2O2 100 µM, relative to the DMSO control group, read-out: DHR-123 fluorescence) [%]	wound area (hCEC [4]; 1 µM, 72 hours of incubation, control group 73 ± 9%) [%]	wound area (hCEC [4]; 2.5 µM, 72 hours of incubation, control group 73 ± 9%) [%]	wound area (hCEC [4]; 2.5 µM, after 48 hours, control group 76 ± 7%) [%]	viability at 1 µM [2] [%]	viability at 2.5 µM [2] [%]	activity at 1 µM (hCEC [5]; 1 µM) [%]	activity at 2.5 µM (hCEC [5]; 2.5 µM) [%]	activity at 5 µM (hCEC [5]; 5 µM) [%]
OO [H2O2, hydrogen peroxide, reference compound]	149 ± 9	79 ± 14	–	–	–	–	–	–	–	–	–	–	–	–	–	–	–
COc1cc(O)c(CC=C(C)C)c(O)c1C(=O)/C=C/c1ccc(O)cc1 [xanthohumol, 1-[2,4-Dihydroxy-6-methoxy-3-(3-methyl-but-2-enyl)-phenyl]-3-(4-hydroxyphenyl)-propenon]	–	–	did not show any significant difference	did not show any significant difference	144 ± 26	127 ± 11	121 ± 24	97 ± 16	95 ± 26	63 ± 14	58 ± 18	66 ± 11	91 ± 11	96 ± 4	112 ± 26	107 ± 16	95 ± 8
